{"source": "patent US4376772A", "about": "“Use of piperazinyl-imidazo[1,2-a]pyrazines in sedation” (Merck & Co., Inc., priority 1981, dated 1983)", "key": {"[1]": {"target": "T1, α2-adrenergic receptor ([3H] clonidine binding site in calf cerebral cortex) (Bos taurus, UniProt Q28838)", "T1 construct": "from tissue; host or cells: calf cerebral cortex", "T1 sequence (Q28838 1-468)": "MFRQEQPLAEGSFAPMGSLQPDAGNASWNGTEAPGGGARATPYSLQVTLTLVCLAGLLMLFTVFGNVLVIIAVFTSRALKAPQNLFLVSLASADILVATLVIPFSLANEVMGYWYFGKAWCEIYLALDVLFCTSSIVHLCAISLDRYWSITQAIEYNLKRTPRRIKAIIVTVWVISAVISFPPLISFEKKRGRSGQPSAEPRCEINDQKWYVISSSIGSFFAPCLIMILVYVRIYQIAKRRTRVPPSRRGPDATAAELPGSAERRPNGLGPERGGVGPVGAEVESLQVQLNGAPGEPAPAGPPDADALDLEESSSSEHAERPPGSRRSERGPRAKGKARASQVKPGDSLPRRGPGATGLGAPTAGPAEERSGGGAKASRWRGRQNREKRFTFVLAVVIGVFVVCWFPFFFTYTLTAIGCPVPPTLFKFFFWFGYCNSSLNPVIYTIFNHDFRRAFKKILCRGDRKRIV", "assay": "α2-adrenergic receptor binding ([3H] clonidine binding site)", "description": "Binding to the α2 -adrenergic receptor was determined by the method of Lyon and Randall, Life Sciences, 26, 1121 (1980) and also is expressed in Table I as Ki representing the affinity of each compound for the [^3 H] clonidine binding site in calf cerebral cortex."}, "[2]": {"target": "α1-adrenergic receptor ([3H] prazosin binding site in calf cerebral cortex)", "assay": "α1-adrenergic receptor binding ([3H] prazosin binding site)", "description": "The α1 - and α2 -adrenergic receptor binding as determined for some of the active compounds of this invention are shown in Table I.\nExtent of binding to the α1 -adrenergic receptor was determined by the method of Greengrass and Bremner, Eur. J. Pharmacol., 55, 323 (1979) and is expressed in Table I as Ki, representing the affinity of each compound for the [^3 H] prazosin binding site in calf cerebral cortex."}, "[3]": {"system": "α-Methyldopa (α-MD) Depression of Rat Locomotor Activity", "assay": "Antagonism of α-methyldopa (α-MD) depression of rat locomotor activity", "format": "in vivo, Female Sprague-Dawley rats", "settings": "20-minute period", "source_text": "Female Sprague-Dawley rats (Sprague-Dawley, Madison, Wis.) weighing 55-90 g were used in these studies. The test apparatus consisted of 10 activity chambers in a closed metal cabinet separated into individual compartments measuring 43×43 cm with a solid partition between each chamber. Ventilation in the cabinet was provided by two high speed fans, and background noise was supplied with a Grason-Stadler Noise Generator. The activity chambers were constructed from clear plexiglass cylinders, 30 cm high by 30 cm in diameter. Two infrared photocells were mounted at a height of 3 cm above the floor, the receivers being at the same height and directly opposite. Interruption of either of the beams registered independently as an activity count. The accumulated locomotor activity counts were stored in a microprocessor-based acquisition system and printed out at a preprogrammed interval on an ASR-33 Teletype unit. The decrease in locomotor activity caused by α-MD is most readily demonstrable during the time immediately following introduction of the rats into the test apparatus. Therefore, activity counts were recorded for a 20-minute period, beginning with placement of the animals in the test chambers. Animals with the various treatments were systematically rotated through the chambers. […] Dunnett's test was used for comparison of several treatment groups with a control group and the least significant difference test for comparison of the means of any two treatment groups. A P value of 0.05 (two-sided) was considered as indicating significance.\nAnimals were pretreated (3 hours, 4 minutes) with α-MD (200 or 400 mg/kg, p.o.), and various doses of 8-(1-piperazinyl)imidazo[1,2-a]pyrazine.2HCl.H2 O (0.11-3.0 mg/kg, sc) 40 minutes prior to testing. Vehicles used in control animals were 1% methylcellulose (in which α-MD was suspended) and saline (in which the experimental compound was dissolved)."}, "[4]": {"system": "sedation produced by clonidine", "settings": "Drew et al., 1979; cited from earlier work"}, "[5]": {"system": "clonidine-induced sedation in man", "settings": "Autret et al., 1977; cited from earlier work"}, "[6]": {"system": "locomotor depressant effects of methyldopa in rats", "settings": "Clineschmidt et al., 1980; cited from earlier work"}}}
{"compound": "CN1CCN(c2nc(Cl)cn3ccnc23)CC1", "note": "[Compound 4]", "values": [{"measurement": "Ki", "setting": "[1]", "value": 0.121, "unit": "µM"}, {"measurement": "Ki", "setting": "[2]", "value": 0.38, "unit": "µM"}]}
{"compound": "C[C@](N)(Cc1ccc(O)c(O)c1)C(=O)O", "note": "[α-MD, α-Methyldopa, reference compound]", "values": [{"measurement": "locomotor activity (square roots of activity counts)", "setting": "[3]; experiment 1, α-MD 400 mg/kg p.o. 3 hr + saline s.c.", "value": "4.7 ± 0.7"}, {"measurement": "locomotor activity (square roots of activity counts)", "setting": "[3]; experiment 2, α-MD 200 mg/kg p.o. 3 hr + saline s.c.", "value": "6.8 ± 0.5"}]}
{"compound": "Clc1cnc2c(N3CCNCC3)nccn12", "note": "[Compound 2]", "values": [{"measurement": "Ki", "setting": "[1]", "value": 0.24, "unit": "µM"}, {"measurement": "Ki", "setting": "[2]", "value": 2.8, "unit": "µM"}]}
{"compound": "Cl.Cl.O.c1cn2ccnc2c(N2CCNCC2)n1", "note": "[Compound, 8-(1-piperazinyl)imidazo[1,2-a]pyrazine dihydrochloride hydrate]", "values": [{"measurement": "locomotor activity (square roots of activity counts)", "setting": "[3]; experiment 1, compound 0.11 mg/kg s.c. 40 min, with α-MD 400 mg/kg p.o.", "value": "5.1 ± 0.5"}, {"measurement": "locomotor activity (square roots of activity counts)", "setting": "[3]; experiment 1, compound 0.33 mg/kg s.c. 40 min, with α-MD 400 mg/kg p.o.", "value": "8.4 ± 0.9"}, {"measurement": "locomotor activity (square roots of activity counts)", "setting": "[3]; experiment 1, compound 1.0 mg/kg s.c. 40 min, with α-MD 400 mg/kg p.o.", "value": "11.7 ± 1.3"}, {"measurement": "locomotor activity (square roots of activity counts)", "setting": "[3]; experiment 1, compound 3 mg/kg s.c. 40 min after α-MD 400 mg/kg p.o.", "value": "11.6 ± 1.3"}, {"measurement": "locomotor activity (square roots of activity counts)", "setting": "[3]; experiment 2, compound 0.11 mg/kg s.c. 40 min, with α-MD 200 mg/kg p.o.", "value": "8.4 ± 1.1"}, {"measurement": "locomotor activity (square roots of activity counts)", "setting": "[3]; experiment 2, compound 0.33 mg/kg s.c. 40 min, with α-MD 200 mg/kg p.o.", "value": "9.5 ± 1.2"}, {"measurement": "locomotor activity (square roots of activity counts)", "setting": "[3]; experiment 2, compound 1.0 mg/kg s.c. 40 min, with α-MD 200 mg/kg p.o.", "value": "11.4 ± 1.2"}, {"measurement": "locomotor activity (square roots of activity counts)", "setting": "[3]; experiment 2, compound 3.0 mg/kg s.c. 40 min, with α-MD 200 mg/kg p.o.", "value": "12.2 ± 1.2"}]}
{"compound": "Clc1cn2ccnc2c(N2CCNCC2)n1", "note": "[Compound 1]", "values": [{"measurement": "Ki", "setting": "[1]", "value": 0.073, "unit": "µM"}, {"measurement": "Ki", "setting": "[2]", "value": 0.25, "unit": "µM"}]}
{"compound": "COC(=O)[C@@H]1[C@H]2C[C@H]3c4[nH]c5ccccc5c4CCN3C[C@@H]2CC[C@@H]1O", "note": "[yohimbine]", "values": [{"measurement": "effect on sedation produced by clonidine", "setting": "[4]", "value": "antagonizes the sedation produced by clonidine"}, {"measurement": "effect on clonidine-induced sedation in man", "setting": "[5]", "value": "reduce clonidine-induced sedation in man"}, {"measurement": "effect on locomotor depressant effects of methyldopa", "setting": "[6]", "value": "antagonizes"}]}
{"compound": "c1cn2ccnc2c(N2CCNCC2)n1", "note": "[Compound 3, 8-(1-piperazinyl)imidazo[1,2-a]pyrazine]", "values": [{"measurement": "Ki", "setting": "[1]", "value": 0.015, "unit": "µM"}, {"measurement": "Ki", "setting": "[2]", "value": 3.1, "unit": "µM"}]}
